# Results from patent US6506876B1, “LTA4 hydrolase inhibitor pharmaceutical compositions and methods of use” (G.D. Searle & Co., priority 1994, dated 2003).
# Several values for one entry are separate records, joined by “and”; a condition that tells them apart may be missing. Equal values may be shown once.
# Biological target: T1, recombinant human LTA4 hydrolase (rhLTA4H) (Homo sapiens, UniProt P09960)
# T1 sequence (P09960 1-611): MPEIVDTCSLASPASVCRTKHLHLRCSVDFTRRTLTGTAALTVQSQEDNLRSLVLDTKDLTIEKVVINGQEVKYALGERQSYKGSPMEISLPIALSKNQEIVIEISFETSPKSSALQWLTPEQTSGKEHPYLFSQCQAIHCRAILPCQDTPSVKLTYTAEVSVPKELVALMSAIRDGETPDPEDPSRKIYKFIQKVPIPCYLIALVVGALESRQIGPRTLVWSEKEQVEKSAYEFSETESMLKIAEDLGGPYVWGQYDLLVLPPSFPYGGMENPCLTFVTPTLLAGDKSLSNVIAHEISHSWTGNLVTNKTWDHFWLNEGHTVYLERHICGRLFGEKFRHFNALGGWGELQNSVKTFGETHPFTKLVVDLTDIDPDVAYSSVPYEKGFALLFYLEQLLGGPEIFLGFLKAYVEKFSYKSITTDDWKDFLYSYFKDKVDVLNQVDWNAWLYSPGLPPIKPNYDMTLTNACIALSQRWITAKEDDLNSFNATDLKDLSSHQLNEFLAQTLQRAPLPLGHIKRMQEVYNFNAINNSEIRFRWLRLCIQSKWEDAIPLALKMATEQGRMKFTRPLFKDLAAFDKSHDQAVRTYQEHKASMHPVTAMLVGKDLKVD
# Experiment: Recombinant human LTA4 hydrolase assay for LTA4 hydrolase inhibitor activity
# Conditions: Recombinant Human LTA4 Hydrolase Assay IC50 LTA4H, recombinant hLTA4H
# Protocol: One or more predetermined amounts of a compound of the invention were incubated in assay buffer (0.1 M potassium phosphate, 5 mg/ml fatty acid free BSA, 10% DMSO, pH 7.4) for 10 minutes at room temperature with 250 ng of recombinant hLTA4H to allow binding, if any, between the enzyme and inhibitor. The stock enzyme solution was 1 mg/ml LTA4 hydrolase, 50 mM Tris, pH 8.0, 150 mM NaCl, 2.5 mM beta-mercaptoethanol, 50% glycerol. […] Each reaction was carried out at room temperature for 10 minutes. The reaction was stopped by diluting 25 μl of the reaction mixture with 500 μl of the assay buffer without DMSO. LTB4 was quantified in the diluted sample by a commercially available enzyme-linked immunoassay [Caymen Chemical Co., Ann Arbor, Mich.] using the method recommended in the manufacturer's instructions and compared to the amount of LTB4 produced in a negative control (i.e., essentially identical conditions except without addition of an inhibitor compound). The IC50 was routinely calculated from the data produced.
row,Structure (SMILES),IC50
1,Fc1ccccc1COc1ccc(OCCN2CCCC2)cc1 [Example 207],0.22 µM
2,c1ccc(Cc2ccc3c(c2)CCC(CN2CCCC2)O3)cc1 (centres unmarked) [Example 292],0.007 µM
3,"C=CCN(CCCCOc1ccc(Cc2ccccc2)cc1)CCC(=O)OCC [Example 410, Ethyl [[4-[4-(Phenylmethyl)phenoxyl]-butyl](2-propenyl)amino]propanoate]",33 µM
4,COC(=O)CNCCCOc1ccc(Cc2ccccc2)cc1 [Example 318],2.5 µM and 4.2 µM
5,COc1ccc(Cc2ccc(OCCN3CCCC3)cc2)cc1F [Example 144],0.08 µM
6,"c1ccc(Oc2ccc(OCCN3CCCC3)nc2)cc1 [Example 65, 5-phenoxy-2-[2-(1-pyrrolidinyl)ethoxy]pyridine]",0.11 µM
7,NC(=O)C1CCN(CCOc2ccc(Cc3ccc(Cl)cc3)cc2)CC1 [Example 234],8 µM
8,COc1ccc(COc2ccc(OCCN3CCCC3)cc2)cc1 [Example 213],1.3 µM
9,COC(=O)C1CC2CC1CN(CCOc1ccc(Cc3ccccc3)cc1)C2 (centres unmarked) [Example 504],0.029 µM
10,CCOC(=O)C1CCCN(CCOc2ccc(Cc3ccccc3)cc2)C1 (centres unmarked) [Example 270],50 µM
11,Cc1ccc(COc2ccc(OCCN3CCCC3)cc2)cc1 [Example 212],3 µM
12,c1ccc(Cc2ccc(OCCn3cnc4cncnc43)cc2)cc1 [357 B],0.73 µM
13,c1ccc(Cc2ccc3c(c2)CC(Cn2nnc4cnccc42)O3)cc1 (centres unmarked) [361 B],7 µM
14,Fc1ccccc1Cc1ccc(OCCN2CCCC2)cc1 [Example 141],0.013 µM
15,c1ccc(Oc2ccc3c(c2)CC(CN2CCCC2)O3)cc1 (centres unmarked) [Example 289],0.043 µM
16,Brc1ccc(COc2ccc(OCCN3CCCC3)cc2)cc1 [Example 203],0.38 µM
17,c1ccc(Cc2ccc(OCCn3ccnc3)cc2)cc1 [Example 352],0.12 µM
18,O=C(O)C1CCN(CCOc2ccc(Cc3ccc(F)cc3)cc2)CC1 [Example 438],3.2 µM
19,CCOC(=O)C1CCN(CCOc2ccc(Cc3ccsc3)cc2)CC1 [Example 313],25 µM
20,Cc1cc(OCCN2CCCC2)ccc1Cc1ccccc1 [Example 118],9 µM
21,c1ccc(Cc2ccc3c(c2)CC(Cn2cnc4ncccc42)O3)cc1 (centres unmarked) [359 B],10 µM
22,C=CCN(CCCOc1ccc(Cc2ccccc2)cc1)CCC(=O)OCc1ccccc1 [Example 409],12 µM
23,O=C(O)C1CCN(CCOc2ccc(Cc3ccsc3)cc2)CC1 [Example 439],18 µM
24,NC(=O)C1CCCN(CCOc2ccc(Cc3ccccc3)cc2)C1 (centres unmarked) [Example 243],0.07 µM
25,NC(=O)C1CCN(CCOc2ccc(Cc3nccs3)cc2)CC1 [Example 231],5 µM
26,Fc1cc(OCCN2CCCC2)c(F)cc1Cc1ccccc1 [Example 120],8 µM
27,CCOC(=O)CCNC(=O)C1CCN(CCOc2ccc(Cc3ccccc3)cc2)CC1 [Example 249],3.2 µM

row,Structure (SMILES),IC50
1,NC(=S)N1CCN(CCOc2ccc(Cc3ccccc3)cc2)CC1 [Example 458],0.56 µM
2,Clc1cc(OCCN2CCCC2)ccc1Cc1ccccc1 [Example 114],3 µM
3,NC(=O)C1CCN(CCOc2ccc(Cc3ccc(F)cc3)cc2)CC1 [Example 235],10 µM
4,CC(CN(C)CCCOc1ccc(Cc2ccccc2)cc1)C(=O)OCc1ccccc1 (centres unmarked) [Example 417],4.3 µM
5,CC1CC(C#N)CCN1CCOc1ccc(Cc2ccccc2)cc1 (centres unmarked) [Example 444],0.3 µM
6,c1cc(OCCN2CCCC2)ccc1Cc1ccc2c(c1)OCO2 [Example 130],0.17 µM
7,Fc1cc(Cc2ccccc2)cc(F)c1OCCN1CCCC1 [Example 119],4 µM
8,c1ccc2cc(COc3ccc(OCCN4CCCC4)cc3)ccc2c1 [Example 200],0.35 µM
9,c1ccc(Cc2ccc(OCCN3CCC4(CC3)OCCO4)cc2)cc1 [Example 246],7 µM
10,COc1ccccc1Cc1ccc(OCCN2CCCC2)cc1 [Example 129],16 µM
11,c1ccc(Cc2ccc(OCCn3cncc4ncnc3-4)cc2)cc1 [357 D],0.04 µM
12,CCOC(=O)CCN(CCCOc1ccc(Cc2ccccc2)cc1)Cc1cccnc1 [Example 414],11 µM
13,NC(=O)C1CCN(CCOc2ccc(Cc3cccnc3)cc2)CC1 [Example 236],20 µM
14,NC(=O)CCNC(=O)C1CCN(CCOc2ccc(Cc3ccccc3)cc2)CC1 [Example 421],0.41 µM
15,O=C(O)C1CCN(CCOc2ccc(Cc3cccc(F)c3)cc2)CC1 [Example 436],0.72 µM
16,Cc1cc(Cc2ccccc2)ccc1OCCN1CCCC1 [Example 117],3.9 µM
17,NC(=O)CCNCCCOc1ccc(Cc2ccccc2)cc1 [Example 423],0.33 µM
18,COC(=O)CCN(C)CCCOc1ccc(Cc2ccc(F)cc2)cc1 [Example 332],14 µM
19,c1ccc(Oc2ccc(OCCn3cnc4ccccc43)cc2)cc1 [Example 344],11.1 µM
20,CC1CC(C(N)=NO)CCN1CCOc1ccc(Cc2ccccc2)cc1 (centres unmarked) [Example 445],0.33 µM
21,c1ccc(Oc2ccc(OCCCn3cnc4cccnc43)cc2)cc1 [350 A],19 µM
22,Clc1cccc(COc2ccc(OCCN3CCCC3)cc2)c1 [Example 206],0.2 µM
23,CCOC(=O)CCN(C)CCCCOc1ccc(Cc2ccccc2)cc1 [Example 415],5 µM
24,CN(CCCOc1ccc(Cc2ccccc2)cc1)CCC(=O)OCc1ccccc1 [Example 411],2.4 µM
25,COc1cc(Cc2ccccc2)ccc1OCCN1CCCC1 [Example 124],25 µM
26,COC(=O)c1cc(Cc2ccccc2)ccc1OCCN1CCCC1 [Example 123],7 µM

# Same assay, conditions: at 25 μM
row,Structure (SMILES),"Recombinant Human LTA4 Hydrolase Assay, % at 25 μM"
1,"O=C(O)c1ccc(-c2ccc(OCCN3CCCC3)cc2)cc1 [Example 63, 4-[4-[2-(1-pyrrolidinyl)ethoxy]phenyl]benzoic acid]",40% at 25
2,"O=C(O)c1ccc(Oc2ccc(OCCN3CCCC3)cc2)cc1 [Example 64, 4-[4-[2-(1-pyrrolidinyl)ethoxy]phenoxy]benzoic acid]",52% at 25
3,Cc1ccccc1COc1ccc(OCCN2CCCC2)cc1 [Example 210],4% at 25 μM

# Same assay, conditions: read-out: Recombinant Human LTA4 Hydrolase Assay, % at 3 μM
row,Structure (SMILES),inhibition at 3 µM [%]
1,Fc1ccc(Oc2ccc(OCCn3cnc4cccnc43)cc2)cc1 [354 A],51
2,CC(C)(C)OC(=O)C1CCCN1CCCOc1ccc(Cc2ccccc2)cc1 (centres unmarked) [Example 260],14
3,Cc1nc(COc2ccc(OCCN3CCCC3)cc2)cs1 [Example 202],44

# Same assay, conditions: read-out: Recombinant Human LTA4 Hydrolase Assay, % at 100 μM
row,Structure (SMILES),inhibition at 100 µM [%]
1,CCOC(=O)C1CCN(CCOc2ccc(Cc3ccc(F)cc3)cc2)CC1 [Example 312],46
2,c1ccc(Cc2ccc3c(c2)CC(Cn2nnc4cccnc42)O3)cc1 (centres unmarked) [360 A],36
3,c1ccc(Cc2ccc3c(c2)CC(Cn2nc4cccnc4n2)O3)cc1 (centres unmarked) [360 B],19
4,O=C(CNCCOc1ccc(Cc2ccccc2)cc1)OCc1ccccc1 [Example 319],47
5,CC1(CN2CCC(C(N)=O)CC2)Cc2cc(Cc3ccccc3)ccc2O1 (centres unmarked) [Example 286],41
6,NC(=O)C1CCCN(CCCOc2ccc(Cc3ccccc3)cc2)C1 (centres unmarked) [Example 244],15
7,c1ccc(Cc2ccc3c(c2)CC(Cn2nc4ccncc4n2)O3)cc1 (centres unmarked) [361 A],24
8,CCOC(=O)C1CCN(CCOc2ccc(Cc3cccnc3)cc2)CC1 [Example 311],44
9,NC(=O)C1CCN(CCCOc2ccc(Cc3ccccc3)cc2)CC1 [Example 226],4
